{
  "source": "patent US20240115527A1",
  "about": "“CXCR1/CXCR2 INHIBITORS FOR USE IN TREATING MYELOFIBROSIS” (Icahn School of Medicine at Mount Sinai, priority 2020, published 2024)",
  "system": "MF CD34+ cells",
  "experiment": "Clonal assays of MF CD34+ cells; JAK2V617F allele status of picked hematopoietic colonies",
  "assay_type": "cell-based, human",
  "protocol": "Individual hematopoietic colonies were randomly picked from clonal assays of CD34^+ cells from 6 MF cases and the JAK2V617F allele status was determined.\nIL-8 alone increased the absolute numbers of JAK2V617F+ colonies, and the addition of Ladarixin reduced the numbers of JAK2V617F positive colonies stimulated by IL-8 (Tables 1-3).",
  "key": {"[1]": {"settings": "MF1 CD34+ cells, ladarixin 10 μM + IL-8 10 ng"}, "[2]": {"settings": "MF1 CD34+ cells, ladarixin 10 μM + IL-8 20 ng"}, "[3]": {"settings": "MF1 CD34+ cells, ladarixin 10 μM + IL-8 50 ng"}, "[4]": {"settings": "MF1 CD34+ cells, ladarixin 10 μM + IL-8 100 ng"}, "[5]": {"settings": "MF1 CD34+ cells, ladarixin 10 μM, no IL-8"}, "[6]": {"settings": "MF1 CD34+ cells, ladarixin 20 μM + IL-8 20 ng"}, "[7]": {"settings": "MF1 CD34+ cells, ladarixin 20 μM, no IL-8"}, "[8]": {"settings": "MF2 CD34+ cells, ladarixin 10 μM + IL-8 10 ng"}, "[9]": {"settings": "MF2 CD34+ cells, ladarixin 10 μM + IL-8 20 ng"}, "[10]": {"settings": "MF2 CD34+ cells, ladarixin 10 μM + IL-8 50 ng"}, "[11]": {"settings": "MF2 CD34+ cells, ladarixin 10 μM + IL-8 100 ng"}, "[12]": {"settings": "MF2 CD34+ cells, ladarixin 10 μM, no IL-8"}, "[13]": {"settings": "MF2 CD34+ cells, ladarixin 20 μM + IL-8 20 ng"}, "[14]": {"settings": "MF2 CD34+ cells, ladarixin 20 μM, no IL-8"}, "[15]": {"settings": "MF3 CD34+ cells, ladarixin 10 μM + IL-8 10 ng"}, "[16]": {"settings": "MF3 CD34+ cells, ladarixin 10 μM + IL-8 20 ng"}, "[17]": {"settings": "MF3 CD34+ cells, ladarixin 10 μM + IL-8 50 ng"}, "[18]": {"settings": "MF3 CD34+ cells, ladarixin 10 μM + IL-8 100 ng"}, "[19]": {"settings": "MF3 CD34+ cells, ladarixin 10 μM, no IL-8"}, "[20]": {"settings": "MF3 CD34+ cells, ladarixin 20 μM + IL-8 20 ng"}, "[21]": {"settings": "MF3 CD34+ cells, ladarixin 20 μM, no IL-8"}},
  "data": [
    {"smiles": "C[C@@H](C(=O)NS(C)(=O)=O)c1ccc(OS(=O)(=O)C(F)(F)F)cc1", "note": "[Ladarixin, R(-)-2-[(4′-trifluoromethanesulfonyloxy)phenyl]-N-methanesulfonyl propionamide]", "values": [
      {"measurement": "number of colonies, Heter (JAK2V617F heterozygous)", "setting": "[1]", "value": 54},
      {"measurement": "number of colonies, Homo (JAK2V617F homozygous)", "setting": "[1]", "value": 8},
      {"measurement": "number of colonies, WT (JAK2 wild type)", "setting": "[1]", "value": 0},
      {"measurement": "number of colonies, Heter (JAK2V617F heterozygous)", "setting": "[2]", "value": 56},
      {"measurement": "number of colonies, Homo (JAK2V617F homozygous)", "setting": "[2]", "value": 4},
      {"measurement": "number of colonies, WT (JAK2 wild type)", "setting": "[2]", "value": 4},
      {"measurement": "number of colonies, Heter (JAK2V617F heterozygous)", "setting": "[3]", "value": 62},
      {"measurement": "number of colonies, Homo (JAK2V617F homozygous)", "setting": "[3]", "value": 5},
      {"measurement": "number of colonies, WT (JAK2 wild type)", "setting": "[3]", "value": 0},
      {"measurement": "number of colonies, Heter (JAK2V617F heterozygous)", "setting": "[4]", "value": 58},
      {"measurement": "number of colonies, Homo (JAK2V617F homozygous)", "setting": "[4]", "value": 8},
      {"measurement": "number of colonies, WT (JAK2 wild type)", "setting": "[4]", "value": 0},
      {"measurement": "number of colonies, Heter (JAK2V617F heterozygous)", "setting": "[5]", "value": 49},
      {"measurement": "number of colonies, Homo (JAK2V617F homozygous)", "setting": "[5]", "value": 4},
      {"measurement": "number of colonies, WT (JAK2 wild type)", "setting": "[5]", "value": 0},
      {"measurement": "number of colonies, Heter (JAK2V617F heterozygous)", "setting": "[6]", "value": 49},
      {"measurement": "number of colonies, Homo (JAK2V617F homozygous)", "setting": "[6]", "value": 4},
      {"measurement": "number of colonies, WT (JAK2 wild type)", "setting": "[6]", "value": 9},
      {"measurement": "number of colonies, Heter (JAK2V617F heterozygous)", "setting": "[7]", "value": 43},
      {"measurement": "number of colonies, Homo (JAK2V617F homozygous)", "setting": "[7]", "value": 0},
      {"measurement": "number of colonies, WT (JAK2 wild type)", "setting": "[7]", "value": 16},
      {"measurement": "number of colonies, Heter (JAK2V617F heterozygous)", "setting": "[8]", "value": 0},
      {"measurement": "number of colonies, Homo (JAK2V617F homozygous)", "setting": "[8]", "value": 0},
      {"measurement": "number of colonies, WT (JAK2 wild type)", "setting": "[8]", "value": 49},
      {"measurement": "number of colonies, Heter (JAK2V617F heterozygous)", "setting": "[9]", "value": 3},
      {"measurement": "number of colonies, Homo (JAK2V617F homozygous)", "setting": "[9]", "value": 0},
      {"measurement": "number of colonies, WT (JAK2 wild type)", "setting": "[9]", "value": 35},
      {"measurement": "number of colonies, Heter (JAK2V617F heterozygous)", "setting": "[10]", "value": 0},
      {"measurement": "number of colonies, Homo (JAK2V617F homozygous)", "setting": "[10]", "value": 0},
      {"measurement": "number of colonies, WT (JAK2 wild type)", "setting": "[10]", "value": 44},
      {"measurement": "number of colonies, Heter (JAK2V617F heterozygous)", "setting": "[11]", "value": 0},
      {"measurement": "number of colonies, Homo (JAK2V617F homozygous)", "setting": "[11]", "value": 0},
      {"measurement": "number of colonies, WT (JAK2 wild type)", "setting": "[11]", "value": 46},
      {"measurement": "number of colonies, Heter (JAK2V617F heterozygous)", "setting": "[12]", "value": 0},
      {"measurement": "number of colonies, Homo (JAK2V617F homozygous)", "setting": "[12]", "value": 0},
      {"measurement": "number of colonies, WT (JAK2 wild type)", "setting": "[12]", "value": 36},
      {"measurement": "number of colonies, Heter (JAK2V617F heterozygous)", "setting": "[13]", "value": 0},
      {"measurement": "number of colonies, Homo (JAK2V617F homozygous)", "setting": "[13]", "value": 0},
      {"measurement": "number of colonies, WT (JAK2 wild type)", "setting": "[13]", "value": 47},
      {"measurement": "number of colonies, Heter (JAK2V617F heterozygous)", "setting": "[14]", "value": 0},
      {"measurement": "number of colonies, Homo (JAK2V617F homozygous)", "setting": "[14]", "value": 0},
      {"measurement": "number of colonies, WT (JAK2 wild type)", "setting": "[14]", "value": 44},
      {"measurement": "number of colonies, Heter (JAK2V617F heterozygous)", "setting": "[15]", "value": 110},
      {"measurement": "number of colonies, Homo (JAK2V617F homozygous)", "setting": "[15]", "value": 17},
      {"measurement": "number of colonies, WT (JAK2 wild type)", "setting": "[15]", "value": 8},
      {"measurement": "number of colonies, Heter (JAK2V617F heterozygous)", "setting": "[16]", "value": 17},
      {"measurement": "number of colonies, Homo (JAK2V617F homozygous)", "setting": "[16]", "value": 69},
      {"measurement": "number of colonies, WT (JAK2 wild type)", "setting": "[16]", "value": 51},
      {"measurement": "number of colonies, Heter (JAK2V617F heterozygous)", "setting": "[17]", "value": 50},
      {"measurement": "number of colonies, Homo (JAK2V617F homozygous)", "setting": "[17]", "value": 67},
      {"measurement": "number of colonies, WT (JAK2 wild type)", "setting": "[17]", "value": 34},
      {"measurement": "number of colonies, Heter (JAK2V617F heterozygous)", "setting": "[18]", "value": 0},
      {"measurement": "number of colonies, Homo (JAK2V617F homozygous)", "setting": "[18]", "value": 109},
      {"measurement": "number of colonies, WT (JAK2 wild type)", "setting": "[18]", "value": 49},
      {"measurement": "number of colonies, Heter (JAK2V617F heterozygous)", "setting": "[19]", "value": 13},
      {"measurement": "number of colonies, Homo (JAK2V617F homozygous)", "setting": "[19]", "value": 73},
      {"measurement": "number of colonies, WT (JAK2 wild type)", "setting": "[19]", "value": 13},
      {"measurement": "number of colonies, Heter (JAK2V617F heterozygous)", "setting": "[20]", "value": 0},
      {"measurement": "number of colonies, Homo (JAK2V617F homozygous)", "setting": "[20]", "value": 70},
      {"measurement": "number of colonies, WT (JAK2 wild type)", "setting": "[20]", "value": 53},
      {"measurement": "number of colonies, Heter (JAK2V617F heterozygous)", "setting": "[21]", "value": 28},
      {"measurement": "number of colonies, Homo (JAK2V617F homozygous)", "setting": "[21]", "value": 49},
      {"measurement": "number of colonies, WT (JAK2 wild type)", "setting": "[21]", "value": 35},
      {"measurement": "number of colonies, Heter (JAK2V617F heterozygous)", "setting": "MF4 CD34+ cells, ladarixin 10 μM + IL-8 10 ng", "value": 137}
    ]}
  ]
}
